# Data reported in article PMC12186697, “HypoxyStat, a small-molecule form of hypoxia therapy that increases oxygen-hemoglobin affinity” (Cell, 2025).
# Test system: 25+ potential off-targets
# Test: Reaction Bio InVEST off-target panel
# Conditions: duplicate; significance = 50% or greater inhibition in both replicates
# Protocol: This assay utilizes colorimetry to monitor the activity of acetylcholinesterase (AChE). Enzyme activity is measured by the conversion of acetylthiocholine to thiocholine, which is detected through an enhanced Ellman’s reaction. In each well, 20 μL of Assay Buffer (75.4 mM Na2HPO4, 24.6 mM NaH2PO4, pH 7.5) was added to wells designated as background/control (no enzyme). Subsequently, 20 μL of 0.2 U/mL AChE was added to the remaining wells. The reaction mixture was incubated at room temperature for 15 minutes on a shaker to allow for enzyme and drug interaction. To initiate the improved Ellman’s reaction, 30 μL of buffer containing 650 μM DTNB and 650 μM acetylthiocholine was added to each well. The color intensity, which is proportional to enzyme activity, was measured at 412 nm using an Envision 2105 plate reader.
# The peroxidase activity is measured colorimetrically by monitoring the appearance of oxidized TMPD at 590 nm. […] Absorbance was then measured at 590 nm using an Envision 2105 plate reader (Revvity).
# This assay uses fluorescence polarization to monitor binding to the hERG channel. […] Fluorescence polarization was measured at Ex/Em = 531 nm FP/595 nm P & S, and mP values were calculated.
# The ADP-Glo™ assay is a luminescent method used to monitor ADP-producing biochemical reactions. […] Luminescence was then measured. […]
smiles,measurement,value
O=Cc1ccccc1C(=O)N1CCCC[C@H]1COc1cccc(O)c1C=O [HypoxyStat],"off-target inhibition or binding, InVEST panel",All tests were negative
